Data published in ChEMBL document CHEMBL5137043, “trans, trans-2-C-Aryl-3,4-dihydroxypyrrolidines as potent and selective β-glucosidase inhibitors: Pharmacological chaperones for Gaucher disease” (Eur J Med Chem, 2022).

Assays:
[1] = molecular target: Lysosomal alpha-glucosidase (Rattus norvegicus) (UniProt Q6P7A9); assay: Inhibition of rat small intestinal maltase assessed as reduction of D-glucose release using maltose as substrate at 1000 uM by colorimetric analysis; format: tissue-based; settings: Small intestine
Sequence of Lysosomal alpha-glucosidase (Rattus norvegicus) (Q6P7A9 whole entry): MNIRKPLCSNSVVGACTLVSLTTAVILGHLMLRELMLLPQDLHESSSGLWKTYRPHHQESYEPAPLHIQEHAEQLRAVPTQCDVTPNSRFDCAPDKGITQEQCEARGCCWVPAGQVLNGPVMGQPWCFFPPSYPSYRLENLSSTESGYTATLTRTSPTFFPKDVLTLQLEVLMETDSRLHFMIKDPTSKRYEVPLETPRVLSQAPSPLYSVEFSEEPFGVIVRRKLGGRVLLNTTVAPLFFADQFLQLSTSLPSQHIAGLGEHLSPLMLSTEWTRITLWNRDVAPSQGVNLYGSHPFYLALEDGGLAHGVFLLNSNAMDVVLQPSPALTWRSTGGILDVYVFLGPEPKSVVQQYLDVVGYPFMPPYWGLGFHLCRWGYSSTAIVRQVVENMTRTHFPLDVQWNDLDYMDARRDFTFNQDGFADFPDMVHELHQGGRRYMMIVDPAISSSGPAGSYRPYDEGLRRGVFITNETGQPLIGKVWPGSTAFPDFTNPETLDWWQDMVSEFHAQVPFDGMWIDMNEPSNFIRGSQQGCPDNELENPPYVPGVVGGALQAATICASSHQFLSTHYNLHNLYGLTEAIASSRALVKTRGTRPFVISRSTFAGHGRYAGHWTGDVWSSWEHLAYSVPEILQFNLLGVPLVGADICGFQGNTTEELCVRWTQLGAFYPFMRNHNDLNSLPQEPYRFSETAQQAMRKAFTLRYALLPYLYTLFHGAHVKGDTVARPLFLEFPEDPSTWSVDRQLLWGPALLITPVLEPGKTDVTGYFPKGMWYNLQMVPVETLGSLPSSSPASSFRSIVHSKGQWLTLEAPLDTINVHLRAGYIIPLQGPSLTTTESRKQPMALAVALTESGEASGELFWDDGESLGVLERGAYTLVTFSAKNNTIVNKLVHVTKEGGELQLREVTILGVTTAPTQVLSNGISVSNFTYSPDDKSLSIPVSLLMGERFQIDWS

[2] = molecular target: T1, Tissue alpha-L-fucosidase (Bos taurus) (UniProt Q2KIM0); assay: Inhibition of bovine kidney alpha-L-fucosidase assessed as reduction of p-nitrophenol release using p-nitrophenyl-glycoside as substrate at 1000 uM by spectrophotometric analysis; format: tissue-based
T1 sequence (whole entry): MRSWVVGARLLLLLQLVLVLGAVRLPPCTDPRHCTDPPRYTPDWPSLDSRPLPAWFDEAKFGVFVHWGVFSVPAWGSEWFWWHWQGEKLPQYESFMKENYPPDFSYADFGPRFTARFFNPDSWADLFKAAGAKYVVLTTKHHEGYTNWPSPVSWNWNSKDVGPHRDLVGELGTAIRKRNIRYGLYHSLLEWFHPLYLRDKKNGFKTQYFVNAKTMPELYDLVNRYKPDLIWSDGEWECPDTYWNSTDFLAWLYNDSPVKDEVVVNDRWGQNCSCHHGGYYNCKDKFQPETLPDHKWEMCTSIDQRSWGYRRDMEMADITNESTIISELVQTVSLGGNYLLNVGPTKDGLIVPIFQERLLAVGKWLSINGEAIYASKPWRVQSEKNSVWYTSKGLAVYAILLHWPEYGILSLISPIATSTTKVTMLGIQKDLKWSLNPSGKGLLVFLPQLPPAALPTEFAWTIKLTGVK

Penicillium decumbens = assay: Inhibition of Penicillium decumbens alpha-L-rhamnosidase assessed as reduction of p-nitrophenol release using p-nitrophenyl-glycoside as substrate at 1000 uM by spectrophotometric analysis
[3] = molecular target: T2, Alpha-mannosidase (Canavalia ensiformis) (UniProt C0HJB3); assay: Inhibition of jack bean alpha-mannosidase assessed as reduction of p-nitrophenol release using p-nitrophenyl-glycoside as substrate at 1000 uM by spectrophotometric analysis
T2 sequence (whole entry): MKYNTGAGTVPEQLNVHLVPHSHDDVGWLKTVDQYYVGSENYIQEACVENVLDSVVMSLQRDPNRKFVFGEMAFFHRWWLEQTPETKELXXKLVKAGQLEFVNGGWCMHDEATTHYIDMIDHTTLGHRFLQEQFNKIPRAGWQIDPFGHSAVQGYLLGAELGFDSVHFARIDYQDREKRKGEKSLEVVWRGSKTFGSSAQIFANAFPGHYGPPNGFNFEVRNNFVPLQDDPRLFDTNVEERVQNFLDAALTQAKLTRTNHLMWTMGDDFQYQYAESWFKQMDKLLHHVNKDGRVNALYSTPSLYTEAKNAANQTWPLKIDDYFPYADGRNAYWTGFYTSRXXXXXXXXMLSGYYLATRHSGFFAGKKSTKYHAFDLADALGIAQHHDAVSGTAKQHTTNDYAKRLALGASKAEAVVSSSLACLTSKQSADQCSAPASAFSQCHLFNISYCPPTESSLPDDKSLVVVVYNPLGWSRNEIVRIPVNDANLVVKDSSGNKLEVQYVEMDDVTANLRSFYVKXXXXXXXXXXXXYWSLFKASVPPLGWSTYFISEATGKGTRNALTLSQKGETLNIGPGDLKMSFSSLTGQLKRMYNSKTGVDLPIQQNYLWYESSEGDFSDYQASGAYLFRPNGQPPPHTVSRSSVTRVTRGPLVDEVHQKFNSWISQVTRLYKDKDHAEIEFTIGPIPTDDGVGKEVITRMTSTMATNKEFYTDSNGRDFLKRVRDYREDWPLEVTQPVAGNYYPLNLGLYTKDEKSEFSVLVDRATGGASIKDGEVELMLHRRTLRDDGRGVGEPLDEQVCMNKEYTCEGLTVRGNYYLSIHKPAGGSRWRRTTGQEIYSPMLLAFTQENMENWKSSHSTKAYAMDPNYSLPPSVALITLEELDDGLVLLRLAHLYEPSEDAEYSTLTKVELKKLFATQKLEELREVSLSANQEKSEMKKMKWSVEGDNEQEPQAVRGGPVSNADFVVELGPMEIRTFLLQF

[4] = molecular target: Lysosomal alpha-glucosidase (Homo sapiens) (UniProt P10253); assay: Inhibition of human lysosomal alpha-glucosidase assessed as reduction of p-nitrophenol release using p-nitrophenyl-glycoside as substrate at 1000 uM by spectrophotometric analysis; settings: Lysosome
[5] = Inhibition of almond beta-glucosidase assessed as reduction of p-nitrophenol release using p-nitrophenyl-glycoside as substrate by spectrophotometric analysis; parameters: species or system Prunus dulcis
[6] = Inhibition of bovine liver beta-galactosidase assessed as reduction of p-nitrophenol release using p-nitrophenyl-glycoside as substrate by spectrophotometric analysis; parameters: species or system Bos taurus
[7] = Inhibition of Escherichia coli beta-glucuronidase assessed as reduction of p-nitrophenol release using p-nitrophenyl-glycoside as substrate by spectrophotometric analysis
[8] = molecular target: Alpha-galactosidase (Coffea arabica) (UniProt Q42656); assay: Inhibition of coffee beans alpha-galactosidase assessed as reduction of p-nitrophenol release using p-nitrophenyl-glycoside as substrate at 1000 uM by spectrophotometric analysis
Sequence of Alpha-galactosidase (Coffea arabica) (Q42656 16-378 limits assumed): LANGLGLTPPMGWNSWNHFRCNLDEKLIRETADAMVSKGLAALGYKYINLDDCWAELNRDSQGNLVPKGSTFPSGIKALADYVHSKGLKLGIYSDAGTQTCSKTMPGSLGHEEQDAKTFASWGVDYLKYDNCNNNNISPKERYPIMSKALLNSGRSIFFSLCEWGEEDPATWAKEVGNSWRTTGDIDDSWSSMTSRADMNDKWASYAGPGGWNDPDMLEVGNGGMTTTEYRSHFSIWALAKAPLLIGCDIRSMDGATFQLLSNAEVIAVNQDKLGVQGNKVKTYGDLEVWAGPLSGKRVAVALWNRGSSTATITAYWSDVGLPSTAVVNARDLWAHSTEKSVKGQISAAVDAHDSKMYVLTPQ

Aspergillus niger = assay: Inhibition of Aspergillus niger amyloglucosidase assessed as reduction of p-nitrophenol release using p-nitrophenyl-glycoside as substrate at 1000 uM by spectrophotometric analysis
[9] = Inhibition of bovine liver beta-glucosidase assessed as reduction of p-nitrophenol release using p-nitrophenyl-glycoside as substrate by spectrophotometric analysis; format: tissue-based, Bos taurus
Saccharomyces cerevisiae = assay: Inhibition of yeast alpha-glucosidase assessed as reduction of p-nitrophenol release using p-nitrophenyl-glycoside as substrate at 1000 uM by spectrophotometric analysis
Oryza sativa = assay: Inhibition of rice alpha-glucosidase assessed as reduction of p-nitrophenol release using p-nitrophenyl-glycoside as substrate at 1000 uM by spectrophotometric analysis
[10] = Inhibition of human lysosomal beta-glucosidase assessed as reduction of p-nitrophenol release using p-nitrophenyl-glycoside as substrate by spectrophotometric analysis; format: subcellular, Lysosome
[11] = molecular target: Sucrase-isomaltase, intestinal (Rattus norvegicus, UniProt P23739); assay: Inhibition of rat small intestinal sucrase assessed as reduction of p-nitrophenol release using p-nitrophenyl-glycoside as substrate by spectrophotometric analysis; format: tissue-based, Small intestine
Sequence of Sucrase-isomaltase, intestinal (P23739 1-1013 limits assumed): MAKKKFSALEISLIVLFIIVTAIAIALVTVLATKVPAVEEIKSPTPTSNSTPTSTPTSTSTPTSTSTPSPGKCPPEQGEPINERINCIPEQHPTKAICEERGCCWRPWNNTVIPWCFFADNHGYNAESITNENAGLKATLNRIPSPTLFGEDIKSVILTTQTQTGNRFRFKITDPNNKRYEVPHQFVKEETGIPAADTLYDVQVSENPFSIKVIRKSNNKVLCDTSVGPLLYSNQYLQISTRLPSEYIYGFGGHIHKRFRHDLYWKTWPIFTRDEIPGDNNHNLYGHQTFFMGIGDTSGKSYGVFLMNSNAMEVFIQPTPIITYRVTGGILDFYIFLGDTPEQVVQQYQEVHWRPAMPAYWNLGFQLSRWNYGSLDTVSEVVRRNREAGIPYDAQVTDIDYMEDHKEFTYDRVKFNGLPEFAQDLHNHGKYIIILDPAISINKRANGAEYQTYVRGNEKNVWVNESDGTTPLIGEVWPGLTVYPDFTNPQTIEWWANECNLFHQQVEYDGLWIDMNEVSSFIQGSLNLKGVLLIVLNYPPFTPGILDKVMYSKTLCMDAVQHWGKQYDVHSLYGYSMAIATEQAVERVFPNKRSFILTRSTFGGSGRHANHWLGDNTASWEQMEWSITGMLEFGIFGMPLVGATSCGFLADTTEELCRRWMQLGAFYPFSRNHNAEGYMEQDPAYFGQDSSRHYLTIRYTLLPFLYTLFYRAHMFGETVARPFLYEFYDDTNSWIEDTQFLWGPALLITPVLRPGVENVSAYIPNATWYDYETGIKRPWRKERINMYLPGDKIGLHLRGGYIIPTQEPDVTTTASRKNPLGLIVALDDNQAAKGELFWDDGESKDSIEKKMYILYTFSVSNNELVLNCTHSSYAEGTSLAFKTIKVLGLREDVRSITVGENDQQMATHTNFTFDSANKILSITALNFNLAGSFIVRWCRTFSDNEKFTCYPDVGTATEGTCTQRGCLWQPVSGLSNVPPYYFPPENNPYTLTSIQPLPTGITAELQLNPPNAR
Sequence of Sucrase-isomaltase, intestinal (P23739 1014-1841 limits assumed): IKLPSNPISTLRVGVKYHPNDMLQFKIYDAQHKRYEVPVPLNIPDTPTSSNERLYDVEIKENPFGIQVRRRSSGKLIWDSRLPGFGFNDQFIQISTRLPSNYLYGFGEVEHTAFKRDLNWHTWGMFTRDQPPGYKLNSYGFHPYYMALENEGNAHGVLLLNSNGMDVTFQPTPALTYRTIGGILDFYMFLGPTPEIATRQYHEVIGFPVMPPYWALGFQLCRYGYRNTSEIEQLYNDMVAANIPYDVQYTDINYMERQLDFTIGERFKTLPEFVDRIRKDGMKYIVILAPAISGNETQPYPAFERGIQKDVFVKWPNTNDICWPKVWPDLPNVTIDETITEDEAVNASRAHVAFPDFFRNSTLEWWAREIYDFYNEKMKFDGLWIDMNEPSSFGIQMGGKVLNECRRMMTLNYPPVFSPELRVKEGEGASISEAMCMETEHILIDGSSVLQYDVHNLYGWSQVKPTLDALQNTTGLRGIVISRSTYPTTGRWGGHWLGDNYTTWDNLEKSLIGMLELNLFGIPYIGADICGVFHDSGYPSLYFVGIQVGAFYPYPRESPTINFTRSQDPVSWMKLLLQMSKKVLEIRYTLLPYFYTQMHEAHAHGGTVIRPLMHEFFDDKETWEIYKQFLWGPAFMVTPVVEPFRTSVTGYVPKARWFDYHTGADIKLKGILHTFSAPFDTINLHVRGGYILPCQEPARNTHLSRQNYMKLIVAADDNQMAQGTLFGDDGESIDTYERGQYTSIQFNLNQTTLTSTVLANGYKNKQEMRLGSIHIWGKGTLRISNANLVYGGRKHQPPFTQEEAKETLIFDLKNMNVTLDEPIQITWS

Helix pomatia = assay: Inhibition of snail beta-mannosidase assessed as reduction of p-nitrophenol release using p-nitrophenyl-glycoside as substrate at 1000 uM by spectrophotometric analysis
Sus scrofa = species: Sus scrofa; assay: Inhibition of porcine kidney alpha-trehalase assessed as reduction of p-nitrophenol release using p-nitrophenyl-glycoside as substrate at 1000 uM by spectrophotometric analysis; format: tissue-based
Bos taurus [12] = species: Bos taurus; assay: Inhibition of bovine liver beta-glucuronidase assessed as reduction of p-nitrophenol release using p-nitrophenyl-glycoside as substrate at 1000 uM by spectrophotometric analysis
[13] = Inhibition of porcine kidney alpha-trehalase assessed as reduction of p-nitrophenol release using p-nitrophenyl-glycoside as substrate by spectrophotometric analysis; format: tissue-based, Sus scrofa
Prunus dulcis = assay: Inhibition of almond beta-glucosidase assessed as reduction of p-nitrophenol release using p-nitrophenyl-glycoside as substrate at 1000 uM by spectrophotometric analysis
[14] = Inhibition of yeast alpha-glucosidase assessed as reduction of p-nitrophenol release using p-nitrophenyl-glycoside as substrate by spectrophotometric analysis; parameters: species or system Saccharomyces cerevisiae
Escherichia coli = assay: Inhibition of Escherichia coli beta-glucuronidase assessed as reduction of p-nitrophenol release using p-nitrophenyl-glycoside as substrate at 1000 uM by spectrophotometric analysis
[15] = Inhibition of rice alpha-glucosidase assessed as reduction of p-nitrophenol release using p-nitrophenyl-glycoside as substrate by spectrophotometric analysis; parameters: species or system Oryza sativa
Bos taurus [16] = species: Bos taurus; assay: Inhibition of bovine liver beta-galactosidase assessed as reduction of p-nitrophenol release using p-nitrophenyl-glycoside as substrate at 1000 uM by spectrophotometric analysis
Homo sapiens = species: Homo sapiens; assay: Inhibition of human lysosomal beta-glucosidase assessed as reduction of p-nitrophenol release using p-nitrophenyl-glycoside as substrate at 1000 uM by spectrophotometric analysis; format: subcellular; settings: Lysosome
Bos taurus [17] = species: Bos taurus; assay: Inhibition of bovine liver beta-glucosidase assessed as reduction of p-nitrophenol release using p-nitrophenyl-glycoside as substrate at 1000 uM by spectrophotometric analysis
[18] = Inhibition of Penicillium decumbens alpha-L-rhamnosidase assessed as reduction of p-nitrophenol release using p-nitrophenyl-glycoside as substrate by spectrophotometric analysis
[19] = molecular target: Sucrase-isomaltase, intestinal (Rattus norvegicus) (UniProt P23739); assay: Inhibition of rat small intestinal sucrase assessed as reduction of p-nitrophenol release using p-nitrophenyl-glycoside as substrate at 1000 uM by spectrophotometric analysis; format: tissue-based; settings: Small intestine
Sequence of Sucrase-isomaltase, intestinal (Rattus norvegicus) (P23739 1-1013 limits assumed): as the sequence (P23739 1-1013 limits assumed) above
Sequence of Sucrase-isomaltase, intestinal (Rattus norvegicus) (P23739 1014-1841 limits assumed): as the sequence (P23739 1014-1841 limits assumed) above

[20] = Inhibition of Aspergillus niger amyloglucosidase assessed as reduction of p-nitrophenol release using p-nitrophenyl-glycoside as substrate by spectrophotometric analysis
[21] = molecular target: T3, Lysosomal acid glucosylceramidase (Homo sapiens, UniProt P04062); assay: Inhibition of human GCase assessed as reduction of 4-methylumbelliferone liberation using 4-methylumbelliferyl-beta-glucopyranoside as substrate preincubated with enzyme for 10 mins followed by substrate addition by fluorescence spectrophotometry
T3 sequence (P04062 whole entry): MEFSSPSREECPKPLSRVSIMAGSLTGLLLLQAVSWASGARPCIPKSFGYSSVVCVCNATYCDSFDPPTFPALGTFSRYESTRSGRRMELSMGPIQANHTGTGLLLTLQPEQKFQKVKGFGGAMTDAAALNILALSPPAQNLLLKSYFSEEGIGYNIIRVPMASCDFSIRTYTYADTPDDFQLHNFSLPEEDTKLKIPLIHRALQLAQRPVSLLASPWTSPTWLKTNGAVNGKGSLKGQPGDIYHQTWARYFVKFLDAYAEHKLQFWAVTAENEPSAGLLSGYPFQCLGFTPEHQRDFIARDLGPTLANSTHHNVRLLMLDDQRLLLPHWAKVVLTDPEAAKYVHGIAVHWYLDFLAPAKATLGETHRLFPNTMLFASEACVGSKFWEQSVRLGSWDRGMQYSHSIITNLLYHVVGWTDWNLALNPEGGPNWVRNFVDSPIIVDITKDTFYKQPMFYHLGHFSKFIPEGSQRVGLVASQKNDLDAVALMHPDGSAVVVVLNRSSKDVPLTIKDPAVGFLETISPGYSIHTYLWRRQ

SMILES	inhibition [1] [%]	inhibition [2] [%]	inhibition (Penicillium decumbens) [%]	inhibition [3] [%]	inhibition [4] [%]	IC50 [5] [µM]	IC50 [6] [µM]	inhibition [8] [%]	inhibition (Aspergillus niger) [%]	inhibition (Saccharomyces cerevisiae) [%]	inhibition (Oryza sativa) [%]	IC50 [10] [µM]	inhibition (Helix pomatia) [%]	inhibition (Sus scrofa) [%]	inhibition (Bos taurus [12]) [%]	inhibition (Prunus dulcis) [%]	inhibition (Escherichia coli) [%]	IC50 [15] [µM]	inhibition (Bos taurus [17]) [%]	further results
O[C@@H]1[C@@H](O)CN[C@H]1c1ccc(-c2ccccc2)cc1	28.8	0	6.4	0	15.6	234	83	0.3	0	4.7	10.3	1.2	14.9	1.6	4.2					IC50 [7]: 418 µM; IC50 [9]: 458 µM; IC50 [11]: 580 µM
OC[C@@H]1NCC(O)C1O (single isomer, unassigned)		13.3	1.3	0				3.9	25.6				0.5		6.3	32.6	8	1.9	4.6	IC50 [13]: 161 µM; IC50 [14]: 163 µM; inhibition (Bos taurus [16]): 8.3%; inhibition (Homo sapiens): 16.1%
O[C@H]1[C@H](CCCc2ccccc2)NC[C@@H]1O		0		11.5	27.8		665	0	0	30	42.9	9.5	5.2	0	0.3	48.8	42.7		35	IC50 [18]: 131 µM; IC50 [11]: 178 µM
O[C@H]1[C@H](O)CN[C@@H]1c1ccccc1	12.4	0	0.5	8.3	29		441	8.6	2	0.3		11	10.1	6.1	15	3.9	20.3	466	43.7	inhibition [19]: 39.9%
O[C@H]1[C@H](O)CN[C@@H]1c1ccc(-c2ccccc2)cc1	15.8	0	0	0	2.9	285	328	0	0	10.1	19	0.76	9.7	13.1	2.3				39.9	inhibition [19]: 47.4%; IC50 [7]: 281 µM
OC[C@H]1NC[C@@H](O)[C@@H]1O		9	13.5			967		4.1				340	13		6.3		5.3	87	7.9	IC50 [13]: 11 µM; IC50 [14]: 2.5 µM; inhibition (Bos taurus [16]): 11.4%; IC50 [20]: 355 µM
CCCCN1C[C@H](CO)[C@@H](O)[C@H](O)C1																				IC50 [21]: 44 µM
